Laboratory results reported in US11613750B2, “Methods of reducing virus molecule levels” (priority 2019, dated 2023).

Assays:
[1] = system: SRSF1 protein; assay: Target protein reduction by Western blot in HepG2.2.15 cells; format: cell-based, human; conditions: 10 nM siRNA, 72 h
Experimental: (§1) The host factors likely function in viral infection as proteins. Therefore, we determined whether the siRNAs could decrease the amounts of the target protein. Cell transfected with 10 nM of each siRNA for 72 h were lysed and the target proteins identified using Western blots probed with target-specific antibodies. The effective siRNAs described in Table 3 reduced the levels of the proteins by between 28 and 92% of the mock-treated samples. The reduction in the proteins is less than the reduction of the target mRNA, likely due to the proteins have prolonged half-life and that more time is needed for their degradation. […] We reason that this is due to RPLP1 and RPLP2 functioning as heterodimers such that a decrease of one protein increases the vulnerability of the other protein to degradation. Similar concomitant decrease of the proteins was reported by Campos et al. (17). Finally, the levels of two cellular proteins that are not targeted by the siRNAs, P54nrb and GAPDH, were unaffected.

[2] = system: HepG2.2.15 cells; assay: HepG2.2.15 cell viability, CellTiter-Glo; conditions: read-out: CC50, HepG2.2.15 cell viability; highest concentration tested 80 nM
Experimental: (§2) Cell viability was assessed by ATP levels determined using the CellTiter-Glo reagent and the results normalized to the level in mock-treated cells. HBsAg levels were quantified using ELISA and the data normalized to the level in the mock-treated cells.
The effects on cell viability were quantified using the CellTiter-Glo reagent. All data were normalized to the amount of protein produced by mock-treated cells.
(§3) The library of siRNAs of Example A5 were tested for the reduction of HBsAg secreted by HepG2.2.15 cells and in HBV virions.

[3] = system: HBeAg; conditions: 10 nM siRNA transfected into cells
Experimental: HBeAg in the cell culture media was assessed using ELISAs.
(§4) The ability of siRNAs targeting host factors that then results in the reduced production of multiple HBV molecules was evaluated by quantifying the amount of HBsAg, HBeAg, and Core protein produced by HepG2.2.15 cells after contacting with 10 nM of siRNAs that target HNRNPA2B1, GRP78, RPLP1, RPLP2, and SRSF1. We also contacted the cells with 5 nM of each set of siRNAs that targets both RPLP1 and RPLP2. The level of HBsAg, HBeAg, and Core were all determined using ELISAs.
as §3

[4] = system: HBsAg; conditions: read-out: EC50, Extracell. HBsAg reduction; HepG2.2.15 cells
Experimental: as §2
The cellular proteins GRP78/BIP, SRSF1, HNRNPA2B1, RPLP1, and RPLP2 were identified as having roles in HBV replication and infection. Various siRNAs and combinations thereof targeting the RNAs encoding these proteins were contacted with HepG2.2.15 cells at a final concentration of 7.5 nM.
The EC50 values of several siRNAs and combinations of siRNAs targeting HNRNPA2B1, GRP78, RPLP1, RPLP2, and/or SRSF1 were determined with respect to the ability to reduce HBsAg levels in HepG2.2.15 cells.
as §4, §3

[5] = system: RPLP1 mRNA; assay: Target mRNA reduction by RT-qPCR in HepG2.2.15 cells; format: cell-based, human; conditions: 10 nM siRNA
Source text: (§5) The siRNAs identified as described in Example A6 should function by a mechanism that includes being loaded in the RISC complex to cleave the cognate mRNA, leading to the degradation of the mRNA. To examine whether the siRNAs are effective in reducing the target mRNA, we used reverse transcription coupled with quantitative polymerase chain reaction (RT-qPCR) to assess the level of the target mRNA in HepG2.2.15 cells. All 32 siRNAs described in Table 2 reduced the mRNA by more than 75% (Table 3).

[6] = system: RPLP1 protein; assay: Target protein reduction by Western blot in HepG2.2.15 cells; format: cell-based, human; conditions: 10 nM siRNA, 72 h
Experimental: as §1

[7] = system: HCoV-OC43; assay: OC43 virion RNA, Branched DNA assay, infected HCT8 cells; format: cell-based, human coronavirus OC43; parameters: reduction in OC43 vRNA: dose or concentration left out as unconfirmed; conditions: for OC43 vRNA reduction siRNA and siGRP78: 10 nM siRNA along with 10 nM of siRNA targeting GRP78, HCT8 cells; for OC43 vRNA reduction: 10 nM siRNA
Experimental: The siRNAs were transfected in the HCT8 cells at a final concentration of 10 nM. A positive control for the inhibition of Coronavirus infection, Remdesivir (Rem), was used at 0.9 μM. The virion RNAs (vRNAs) were quantified using a Branched DNA assay specific for OC43 RNA.
The two siRNAs are those referred to by compound number (see Table 2) in the horizontal bar, along with siRNA targeting GRP78, siGRP78. A positive control for the inhibition of Coronavirus infection, Remdesivir (Rem), was used at 0.9 μM. The vRNAs were quantified using a Branched DNA assay specific for OC43 RNA.
The siRNAs listed in Table 2 were transfected into human colon epithelial HCT8 cells and the amount of OC43 virion produced was quantified. In these assays, the OC43 vRNA was quantified using a Branched DNA assay (QuantiGene gene expression assay: ThermoFisher). As a positive inhibitory control, the infected cells were treated with Remdesivir. […] Examples of the inhibition of OC43 vRNA are illustrated in FIG. 5A.
A combination of siRNAs targeting the host factor should more robustly reduce OC43 virion production. To illustrate this, HCT8 cells were transfected with 10 nM of siRNAs from Table 2 along with 10 nM of siRNA targeting GRP78. The virion RNAs produced were quantified using the Branched DNA assay. […] A combination of siRNAs targeting host factors GRP78, SRSF1, RPLP1 and RPLP2 can lead to significant reduction in the production of human Coronavirus virion RNA from infected cells.

[8] = system: HCoV-OC43; assay: OC43 virion RNA, RT-qPCR of the OC43 N gene, infected HCT8 cells; format: cell-based, human coronavirus OC43; parameters: dose or concentration left out as unconfirmed
[9] = system: SRSF1 mRNA; assay: Target mRNA reduction by RT-qPCR in HepG2.2.15 cells; format: cell-based, human; conditions: 10 nM siRNA
Source text: as §5

[10] = system: GRP78 mRNA; assay: as above; format: cell-based, human; conditions: 10 nM siRNA
Source text: as §5

[11] = system: GRP78 protein; assay: Target protein reduction by Western blot in HepG2.2.15 cells; format: cell-based, human; conditions: 10 nM siRNA, 72 h
Experimental: as §1

Compound | Target protein reduction in HepG2.2.15 cells [1] [%] | CC50 [2] [nM] | HBeAg reduction HepG2.2.15 cells [3] [%] | EC50 [4] [nM] | Target RNA reduction in HepG2.2.15 cells [5] [%] | Target protein reduction in HepG2.2.15 cells [6] [%] | OC43 vRNA reduction siRNA and siGRP78 [7] [%] | OC43 vRNA reduction ([7]; HCT8 cells) [%] | OC43 virion production remaining [8] | reduction in OC43 vRNA ([7]; HCT8 cells) | Target RNA reduction in HepG2.2.15 cells [9] [%] | Target RNA reduction in HepG2.2.15 cells [10] [%] | Target protein reduction in HepG2.2.15 cells [11] [%]
23 (CUGGAUAACACUAAGUUUAUUUAAACUUAGUGUUAUCCAGUU; siRNA; Self-complementary hairpin strand, chemistry not given here, further chemistry not given here; listed as Homo sapiens) [compound 23] | 81 ± 11 | > 80 | 29.8 ± 3 | 3.9 |  |  |  |  |  |  |  |  | 
26 (GAAGCAAAGAAAGAAGAAUCCTTAUUCUUCUUUCUUUGCUUCCATT; siRNA; Self-complementary hairpin strand, chemistry not given here, further chemistry not given here; listed as Homo sapiens) [compound 26] |  | > 80 | 64 ± 3 | 0.376 | 86 ± 1 | 72 ± 17 | 95 ± 1 | 91 ± 3 |  |  |  |  | 
CCC(CC)COC(=O)[C@H](C)N[P@](=O)(OC[C@H]1O[C@@](C#N)(c2ccc3c(N)ncnn23)[C@H](O)[C@@H]1O)Oc1ccccc1 [Remdesivir, reference compound] |  |  |  |  |  |  |  |  | less than 5% | more than 98% |  |  | 
27 (GGUCUUUUUGACUAAACCUCUTTAGGUUUAGUCAAAAAGACCAATT; siRNA; Self-complementary hairpin strand, chemistry not given here, further chemistry not given here; listed as Homo sapiens) [compound 27] |  | > 80 | 55 ± 5 | 0.11 | 72 ± 7 | 51 ± 9 | 95 ± 2 | 94 ± 4 |  |  |  |  | 
22 (CAUCUACGUGGGUAACUUAUUUAAGUUACCCACGUAGAUGUU; siRNA; Self-complementary hairpin strand, chemistry not given here, further chemistry not given here; listed as Homo sapiens) [compound 22] | 92 ± 20 | > 80 | 33.5 ± 5 | 0.9 |  |  | 85 ± 4 | 36 ± 3 |  |  | 71 ± 1 |  | 
25 (GAUCAAUGCCCUCAUUAAAGCTTUUUAAUGAGGGCAUUGAUCUUTT; siRNA; Self-complementary hairpin strand, chemistry not given here, further chemistry not given here; listed as Homo sapiens) [compound 25] |  | > 80 | 60 ± 3 | 1.83 | 74 ± 6 | 53 ± 12 | 88 ± 3 | 80 ± 7 |  |  |  |  | 
32 (AGAAGAAAGUGGAAGCAAAGAUUUCUUUGCUUCCACUUUCUUCUUU; siRNA; Self-complementary hairpin strand, chemistry not given here, further chemistry not given here; listed as Homo sapiens) [compound 32] |  | > 80 | 32 ± 6 | 0.525 | 80 ± 7 | 71 ± 8 | 86 ± 4 | 87 ± 4 |  |  |  |  | 
21 (CUGUUACAAUCAAGGUCUATTUAGACCUUGAUUGUAACAGTT; siRNA; Self-complementary hairpin strand, chemistry not given here, further chemistry not given here; listed as Homo sapiens) [compound 21] |  | > 80 | 61.5 ± 10 | 1.6 |  |  | 90 ± 4 | 89 ± 8 |  |  |  | 90 ± 3 | 59 ± 2
28 (UAUGGCCUCUGUCUCCGAGCUUUAGCUCGGAGACAGAGGCCAUAUU; siRNA; Self-complementary hairpin strand, chemistry not given here, further chemistry not given here; listed as Homo sapiens) [compound 28] |  | > 80 | 30 ± 4 | 0.19 | 80 ± 2 | 58 ± 7 | 71 ± 6 | 48 ± 12 |  |  |  |  | 
30 (AGGAUAAGAUCAAUGCCCUUCUUGAAGGGCAUUGAUCUUAUCCUUU; siRNA; Self-complementary hairpin strand, chemistry not given here, further chemistry not given here; listed as Homo sapiens) [compound 30] |  | > 80 | 58 ± 4 | 0.69 | 78 ± 3 | 45 ± 8 | 84 ± 6 | 90 ± 6 |  |  |  |  | 
